# In patent US20220265603A1, “HEPATIC FIBROSIS-INHIBITING AGENT AND BROWN FAT CELL-ACTIVATING AGENT CONTAINING TAXIFOLIN” (NATIONAL HOSPITAL ORGANIZATION, priority 2019, published 2022):
# Assays:
# [1] = system: AMPK; test: Liver AMPK phosphorylation, Western blotting; assay type: in vivo, C57BL/6J mice; details: 12 weeks
# Text: (§1) AMPK phosphorylation, ACC phosphorylation: Western blotting
# [2] = system: UCP1 gene; test: UCP1 gene expression in brown adipose tissue, real-time RT PCR; assay type: in vivo, C57BL/6J mice; details: high-fat diet+3% taxifolin vs high-fat diet only, 12 weeks
# Text: (vii) Histological Analysis of the Liver Observation of morphology and fat accumulation: Hematoxylin Eosin (HE) staining Observation of fibrosis: Azan staining, SiriusRed staining, immunohistochemistry (anti-F4/80 antibody) (viii) Analysis of Brown Adipocytes and UCP1 Target tissue: Brown adipose tissue Target: UCP1 gene Means of analysis: real-time RT PCR analysis
# [3] = system: type 1 diabetes model rat; details: non-patent document 11; cited from earlier work
# [4] = system: lipid peroxidation; test: Blood and liver tissue lipid peroxidation (MDA) assay; assay type: in vivo, C57BL/6J mice; details: 12 weeks
# Text: Blood and liver tissue lipid peroxidation: Lipid Peroxidation (MDA) Colorimetric Assay Kit (BioVision, Inc.)
# [5] = Fasting blood glucose and intraperitoneal glucose tolerance test (IPGTT); assay type: in vivo, C57BL/6J mice; details: 12 weeks
# Method: They were allowed to eat and drink freely, and their food intake and body weight were measured once a week. Fasting blood glucose was measured on the first day of the feeding experiment and once every 4 weeks thereafter (at 4, 8, and 12 weeks after the start of the feeding). At the end of 12 weeks, an intraperitoneal glucose tolerance test (IPGTT) was performed to analyze glucose tolerance. Rectal temperature was also measured at 8 and 12 weeks follow-up (Table 2). glucose tolerance: The area under the blood glucose curve (AUC) was calculated from the blood glucose fluctuation curve from fasting blood glucose level to 120 min after ingestion using the trapezoidal formula.
# [6] = Food ingestion experiment: body weight and food intake; assay type: in vivo, C57BL/6J mice
# Method: C57BL/6J mice were used as experimental animals. They were purchased at the age of 7 weeks from CLEA Japan, Inc. and randomly divided into four groups at the age of 8 weeks after 1 week of acclimation as shown in Table 1 below. They were allowed to eat and drink freely, and their food intake and body weight were measured once a week. Fasting blood glucose was measured on the first day of the feeding experiment and once every 4 weeks thereafter (at 4, 8, and 12 weeks after the start of the feeding). At the end of 12 weeks, an intraperitoneal glucose tolerance test (IPGTT) was performed to analyze glucose tolerance. Rectal temperature was also measured at 8 and 12 weeks follow-up (Table 2).
# [7] = system: fatty acid oxidation-related genes; test: Liver fatty acid oxidation-related gene expression, RT PCR; assay type: in vivo, C57BL/6J mice; details: high-fat diet+3% taxifolin vs high-fat diet only, 12 weeks
# [8] = system: liver tissue; test: Histological analysis of the liver (HE, Azan, SiriusRed, anti-F4/80); assay type: in vivo, C57BL/6J mice; details: 12 weeks
# Method: Liver samples were partially trimmed for tissue observation, washed, immersed in 4% paraformaldehyde, and fixed at 4° C. overnight. The fixed samples were washed, dehydrated in an ascending ethanol series, and paraffin-embedded. (vii) Histological Analysis of the Liver Observation of morphology and fat accumulation: Hematoxylin Eosin (HE) staining Observation of fibrosis: Azan staining, SiriusRed staining, immunohistochemistry (anti-F4/80 antibody) (viii) Analysis of Brown Adipocytes and UCP1 Target tissue: Brown adipose tissue Target: UCP1 gene Means of analysis: real-time RT PCR analysis
# [9] = Rectal temperature measurement; assay type: in vivo, C57BL/6J mice; details: normal diet+3% taxifolin group
# Method: They were allowed to eat and drink freely, and their food intake and body weight were measured once a week. Fasting blood glucose was measured on the first day of the feeding experiment and once every 4 weeks thereafter (at 4, 8, and 12 weeks after the start of the feeding). At the end of 12 weeks, an intraperitoneal glucose tolerance test (IPGTT) was performed to analyze glucose tolerance. Rectal temperature was also measured at 8 and 12 weeks follow-up (Table 2).
# [10] = system: anti-oxidation enzymes (Mn-SOD, CuZn-SOD, Catalase, GP-x); test: Anti-oxidation enzyme gene expression, RT PCR; assay type: in vivo, C57BL/6J mice; details: 12 weeks
# Text: Anti-oxidation enzyme (Mn-SOD, CuZn-SOD, Catalase, GPx) gene expression: Real-time Quantitative RT PCR
# [11] = system: F4/80, TNF-α, IL-1β gene expression; test: Liver tissue inflammation index gene expression, RT PCR; assay type: in vivo, C57BL/6J mice; details: high-fat diet+3% taxifolin vs high-fat diet only, 12 weeks
# Text: F4/80, TNF-α, IL-1β gene expression: Real-time Quantitative RT PCR
# [12] = system: Alzheimer's disease model mouse; details: cited from earlier work
# [13] = system: acute pancreatitis model mouse; details: non-patent document 10; cited from earlier work
# [14] = system: F4/80, αSMA, TGF-β1 protein; test: Liver fibrosis index protein amount, Western blotting; assay type: in vivo, C57BL/6J mice; details: 12 weeks
# Text: F4/80, αSMA, TGF-β1 protein amount: Western blotting
# [15] = system: P38 MAPK, NF-κB p65, JNK phosphorylation; test: Inflammation induction signal pathway activity in liver, Western blotting; assay type: in vivo, C57BL/6J mice; details: high-fat diet+3% taxifolin vs high-fat diet only, 12 weeks
# Text: P38 MAPK phosphorylation, NF-κB p65 phosphorylation, JNK phosphorylation: Western blotting
# [16] = system: αSMA, PAI1, TGF-β1, Type1 collagen gene expression; test: Liver fibrosis index gene expression, RT PCR; assay type: in vivo, C57BL/6J mice; details: high-fat diet+3% taxifolin vs high-fat diet only, 12 weeks
# Text: αSMA, PAI1, TGF-β, 1-type Collagen gene expression: Real-time Quantitative RT PCR
# [17] = system: ACC; test: Liver ACC phosphorylation, Western blotting; assay type: in vivo, C57BL/6J mice; details: 12 weeks
# Text: as §1
# [18] = Blood concentration and biochemical test; assay type: in vivo, C57BL/6J mice; details: high-fat diet+3% taxifolin vs high-fat diet only, 12 weeks
# Text: insulin concentration: Ultra-sensitive mouse insulin ELISA kit (Morinaga Institute of Biological Science, Inc.) leptin concentration: mouse/rat leptin ELISA kit (Morinaga Institute of Biological Science, Inc.) adiponectin concentration: mouse/rat adiponectin ELISA kit (Otsuka Pharmaceutical Co., Ltd.) Triglyceride: Lab Assay Kit (Wako) TNF-α, IL-1β concentration: ELISA kit (Proteintech) ALT, AST levels: Assay Kit (Funakoshi Co., Ltd.)
# [19] = system: liver fatty acid synthesis-related genes; test: Liver fatty acid synthesis-related gene expression, RT PCR; assay type: in vivo, C57BL/6J mice; details: high-fat diet+3% taxifolin vs high-fat diet only, 12 weeks
# Text: Srebp1c, Lxra, FAS, Scd1, PPARα, Cpt1a gene expression: Real-time Quantitative RT PCR
# [20] = non-patent document 9; cited from earlier work
# [21] = Tissue weight at autopsy; assay type: in vivo, C57BL/6J mice; details: high-fat diet+3% taxifolin vs high-fat diet only, 12 weeks
# Method: The last fasting blood glucose was measured 5 days after the day of PGTT, and all blood samples were collected under ether anesthesia, then the mice were euthanized by cervical dislocation, and samples were collected and partially weighed as shown in Table 3 below.
# [22] = high-fat diet+3% taxifolin vs high-fat diet only
# [23] = normal diet+3% taxifolin vs normal diet only
# [24] = liver tissue, high-fat diet+3% taxifolin vs high-fat diet only
smiles,measurement,setting,value
O=C1c2c(O)cc(O)cc2O[C@H](c2ccc(O)c(O)c2)[C@H]1O [taxifolin],AMPK phosphorylation,[1]; [22],significantly increased
same,AMPK phosphorylation,[1]; [23],significantly increased
same,UCP1 gene expression,[2],significantly increased
same,blood glucose,[3],blood glucose-improving effects
same,concentration of MDA in the liver,[4]; [22],significantly decreased
same,concentration of malondialdehyde (MDA) in blood,[4]; [22],significantly decreased
same,concentration of MDA in the liver,[4]; [23],significantly decreased
same,fasting blood glucose (FIG. 6A),[5]; [22],significantly decreased
same,blood glucose area under the curve (AUC),"[5]; high-fat diet+3% taxifolin vs high-fat diet only, IPGTT",significantly decreased
same,blood glucose level at 60 min after start of intraperitoneal glucose tolerance test,[5]; normal diet+3% taxifolin group,significantly lower
same,fasting blood glucose (FIG. 3A),[5]; normal diet+3% taxifolin group,significantly lower
same,fasting blood glucose (FIG. 6A),[5]; [23],significantly decreased
same,body weight,"[6]; high-fat diet+3% taxifolin vs high-fat diet only, 4 weeks",significant difference
same,body weight,"[6]; normal diet+3% taxifolin group vs all other groups, 8 weeks",significant difference in weight loss
same,body weight,"[6]; normal diet+3% taxifolin group vs other groups, 12 weeks",no weight gain was observed
same,body weight,"[6]; normal diet+3% taxifolin group, 6 weeks",significant difference in weight loss
same,Cd36 gene expression,[7],significantly decreased
same,"hepatic crown-like structures (hCLS), anti-F4/80 immunohistochemical staining",[8]; high-fat diet+3% taxifolin group vs high-fat diet-only group,hardly observed
same,"fat accumulation in liver, HE staining",[8]; [22],markedly reduced
same,"amount of collagen stained blue, Azan staining",[8]; [24],reduced
same,"amount of collagen stained red, Sirius Red staining",[8]; [24],decreased
same,rectal temperature,[9]; 8 weeks,significantly higher
same,rectal temperature,[9]; 12 weeks,trend was also observed
same,Catalase gene expression,[10]; [22],significantly decreased
same,CuZn-SOD gene expression,[10]; [22],significantly decreased
same,GP-x gene expression,[10]; [22],significantly decreased
same,Mn-SOD gene expression,[10]; [22],significantly decreased
same,Mn-SOD gene expression,[10]; [23],significantly decreased
same,F4/80 gene expression,[11],significantly decreased
same,IL-1β gene expression,[11],significantly decreased
same,TNF-α gene expression,[11],significantly decreased
same,amyloid P coagulation,[12],suppression of amyloid P coagulation
same,brain blood flow,[12],improvement of brain blood flow
same,spatial recognition function in the water maze test,[12],improvement of spatial recognition function
same,anti-oxidation action,[13],anti-oxidation action
same,F4/80 protein amount,[14]; [22],significantly decreased
same,αSMA protein amount,"[14]; high-fat diet+3% taxifolin vs high-fat diet only, P=0.054",decreasing trend
same,F4/80 protein amount,[14]; [23],decrease was significant
same,TGF-β1 protein amount,[14]; [23],significantly decreased
same,NF-κB p65 phosphorylation,[15],significantly decreased
same,P38 MAPK phosphorylation,[15]; P=0.1045,decreasing trend
same,c-Jun amino-terminal kinase (JNK) phosphorylation,[15]; P=0.1701,decreasing trend
same,PAI1 gene expression,[16],significantly decreased
same,TGF-β1 gene expression,[16],significantly decreased
same,αSMA gene expression,[16],significantly decreased
same,Collagen 1 gene expression,[16]; P=0.07,decreasing trend
same,ACC phosphorylation,[17]; [22],significantly increased
same,ACC phosphorylation,[17]; [23],significantly increased
same,blood ALT levels,[18],significantly decreased
same,blood insulin concentration,[18],significantly decreased
same,blood leptin concentration,[18],significantly decreased
same,insulin resistance index (HOMA-R),[18],significantly decreased
same,liver triglyceride concentration,[18],significantly decreased
same,blood TNF-α concentration,[18]; P=0.076,tendency to decrease
same,blood triglyceride concentration,[18]; P=0.079,decreasing trend
same,blood IL-1β concentration,[18]; P=0.0932,tendency to decrease
same,FAS gene expression,[19],significantly decreased
same,Lxrα gene expression,[19],significantly decreased
same,Scd1 gene expression,[19],significantly decreased
same,Srebp1c gene expression,[19],significantly decreased
same,safety for intake,[20],safe for intake
same,brown adipose tissue weight (BAT weight),[21],significantly decreased
same,epididymal fat weight (EPI WAT weight),[21],significantly decreased
same,liver weight,[21],significantly decreased
